Target: T1, NaV 1.7 (Homo sapiens, UniProt Q15858)
T1 construct: expressed in transfected cells; host or cells: HEK cells
Experiment: E-VIPR optical membrane potential assay with electrical stimulation
Type: cell-based
Conditions: active against one or more sodium channels; assay/subtype not specified in Table 4; read-out: IC50 Binned Activity Data
From the text: E-VIPR Optical Membrane Potential Assay Method with Electrical Stimulation
Sodium channels are voltage-dependent proteins that can be activated by inducing membrane voltage changes by applying electric fields. The electrical stimulation instrument and methods of use are described in Ion Channel Assay Methods PCT/US01/21652, herein incorporated by reference and are referred to as E-VIPR. The instrument comprises a microtiter plate handler, an optical system for exciting the coumarin dye while simultaneously recording the coumarin and oxonol emissions, a waveform generator, a current- or voltage-controlled amplifier, and a device for inserting electrodes in well. Under integrated computer control, this instrument passes user-programmed electrical stimulus protocols to cells within the wells of the microtiter plate.
24 hours before the assay on E-VIPR, HEK cells expressing human NaV subtype, like NaV 1.7, are seeded in 384-well poly-lysine coated plates at 15,000-20,000 cells per well. Other subtypes are performed in an analogous mode in a cell line expressing the NaV of interest. HEK cells are grown in media (exact composition is specific to each cell type and NaV subtype) supplemented with 10% FBS (Fetal Bovine Serum, qualified; GibcoBRL #16140-071) and 1% Pen-Strep (Penicillin-Streptomycin; GibcoBRL #15140-122). Cells are grown in vented cap flasks, in 90% humidity and 10% CO2, to 100% confluence. They are usually split by trypsinization 1:10 or 1:20, depending on scheduling needs, and grown for 2-3 days before the next split.
• 100 mg/mL Pluronic F-127 (Sigma #P2443), in dry DMSO • Compound Plates: 384-well round bottom plate, e.g. Corning 384-well Polypropylene Round Bottom #3656 • Cell Plates: 384-well tissue culture treated plate, e.g. Greiner #781091-1B • 10 mM DiSBAC6(3) (Aurora #00-100-010) in dry DMSO • 10 mM CC2-DMPE (Aurora #00-100-008) in dry DMSO • 200 mM ABSC1 in H2O
Bath1 buffer. Glucose 10 mM (1.8 g/L), Magnesium Chloride (Anhydrous), 1 mM (0.095 g/L), Calcium Chloride, 2 mM (0.222 g/L), HEPES 10 mM (2.38 g/L), Potassium Chloride, 4.5 mM (0.335 g/L), Sodium Chloride 160 mM (9.35 g/L).
Hexyl Dye Solution: Bath1 Buffer+0.5% β-cyclodextrin (make this prior to use, Sigma #C4767), 8 μM CC2-DMPE+2.5 μM DiSBAC6(3). To make the solution Add volume of 10% Pluronic F127 stock equal to volumes of CC2-DMPE+DiSBAC6(3). The order of preparation is first mix Pluronic and CC2-DMPE, then add DiSBAC6(3) while vortexing, then add Bath1+β-Cyclodextrin.
1) Pre-spot compounds (in neat DMSO) into compound plates. Vehicle control (neat DMSO), the positive control (20 mM DMSO stock tetracaine, 125 μM final in assay) and test compounds are added to each well at 160× desired final concentration in neat DMSO. Final compound plate volume will be 80 μL (80-fold intermediate dilution from 1 μL DMSO spot; 160-fold final dilution after transfer to cell plate). Final DMSO concentration for all wells in assay is 0.625%.
2) Prepare Hexyl Dye Solution.
3) Prepare cell plates. On the day of the assay, medium is aspirated and cells are washed three times with 100 μL of Bath1 Solution, maintaining 25 μL residual volume in each well.
4) Dispense 25 μL per well of Hexyl Dye Solution into cell plates. Incubate for 20-35 minutes at room temp or ambient conditions.
5) Dispense 80 μL per well of Bath1 into compound plates. Acid Yellow-17 (1 mM) is added and Potassium Chloride can be altered from 4.5 to 20 mM depending on the NaV subtype and assay sensitivity.
6) Wash cell plates three times with 100 μL per well of Bath1, leaving 25 μL of residual volume. Then transfer 25 uL per well from Compound Plates to Cell Plates. Incubate for 20-35 minutes at room temp/ambient condition
7) Read Plate on E-VIPR. Use the current-controlled amplifier to deliver stimulation wave pulses for typically 9 seconds and a scan rate of 400 Hz. A pre-stimulus recording is performed for 0.5 seconds to obtain the un-stimulated intensities baseline. […]

T1 sequence (Q15858 whole entry): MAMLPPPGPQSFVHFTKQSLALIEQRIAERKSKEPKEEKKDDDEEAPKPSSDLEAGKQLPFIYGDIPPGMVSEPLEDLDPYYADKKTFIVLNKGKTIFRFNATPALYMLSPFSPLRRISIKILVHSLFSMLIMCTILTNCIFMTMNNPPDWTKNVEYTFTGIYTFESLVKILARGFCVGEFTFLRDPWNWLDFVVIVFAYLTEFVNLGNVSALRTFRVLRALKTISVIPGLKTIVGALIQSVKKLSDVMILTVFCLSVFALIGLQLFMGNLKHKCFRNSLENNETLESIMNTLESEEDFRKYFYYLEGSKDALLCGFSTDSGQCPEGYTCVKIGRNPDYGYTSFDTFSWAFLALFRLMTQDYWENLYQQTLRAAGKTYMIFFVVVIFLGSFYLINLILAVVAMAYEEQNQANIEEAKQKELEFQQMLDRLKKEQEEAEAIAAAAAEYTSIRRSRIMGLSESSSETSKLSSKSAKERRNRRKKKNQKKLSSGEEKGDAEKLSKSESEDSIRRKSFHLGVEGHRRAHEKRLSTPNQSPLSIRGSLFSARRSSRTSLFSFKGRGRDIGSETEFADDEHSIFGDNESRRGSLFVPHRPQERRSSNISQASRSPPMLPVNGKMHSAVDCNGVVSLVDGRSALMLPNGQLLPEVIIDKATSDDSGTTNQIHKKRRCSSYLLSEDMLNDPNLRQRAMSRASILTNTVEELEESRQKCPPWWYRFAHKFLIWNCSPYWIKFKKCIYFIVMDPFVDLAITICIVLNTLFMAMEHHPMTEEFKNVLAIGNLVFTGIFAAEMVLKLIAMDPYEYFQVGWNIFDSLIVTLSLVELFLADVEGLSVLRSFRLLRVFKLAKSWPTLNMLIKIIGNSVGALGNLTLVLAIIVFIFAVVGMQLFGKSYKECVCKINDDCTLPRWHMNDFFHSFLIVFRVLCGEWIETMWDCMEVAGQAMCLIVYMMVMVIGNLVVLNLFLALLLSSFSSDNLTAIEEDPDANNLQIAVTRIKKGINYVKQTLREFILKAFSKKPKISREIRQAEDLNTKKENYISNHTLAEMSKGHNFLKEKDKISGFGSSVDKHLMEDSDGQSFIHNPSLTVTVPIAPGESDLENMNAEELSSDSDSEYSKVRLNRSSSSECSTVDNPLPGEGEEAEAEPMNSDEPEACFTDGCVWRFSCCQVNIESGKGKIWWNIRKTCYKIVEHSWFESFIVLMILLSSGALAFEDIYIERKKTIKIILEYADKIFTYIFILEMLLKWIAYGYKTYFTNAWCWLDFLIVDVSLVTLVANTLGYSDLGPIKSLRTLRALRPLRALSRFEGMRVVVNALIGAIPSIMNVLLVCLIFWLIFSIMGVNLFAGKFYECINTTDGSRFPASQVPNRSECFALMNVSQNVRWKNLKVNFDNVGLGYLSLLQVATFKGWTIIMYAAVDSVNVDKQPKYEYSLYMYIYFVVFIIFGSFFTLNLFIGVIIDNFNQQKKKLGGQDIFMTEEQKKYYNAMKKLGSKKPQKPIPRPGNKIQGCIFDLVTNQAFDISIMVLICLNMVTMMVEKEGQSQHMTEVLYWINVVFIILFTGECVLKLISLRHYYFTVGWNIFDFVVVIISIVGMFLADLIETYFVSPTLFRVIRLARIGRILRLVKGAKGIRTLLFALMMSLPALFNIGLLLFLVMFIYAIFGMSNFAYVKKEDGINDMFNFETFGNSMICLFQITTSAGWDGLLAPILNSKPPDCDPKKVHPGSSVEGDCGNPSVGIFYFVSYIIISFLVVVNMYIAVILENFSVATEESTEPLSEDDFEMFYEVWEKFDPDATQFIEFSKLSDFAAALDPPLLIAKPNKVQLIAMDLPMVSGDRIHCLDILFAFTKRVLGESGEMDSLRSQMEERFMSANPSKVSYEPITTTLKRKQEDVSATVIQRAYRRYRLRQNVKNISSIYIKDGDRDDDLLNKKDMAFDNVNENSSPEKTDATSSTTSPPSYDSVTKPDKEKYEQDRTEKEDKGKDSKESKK

Row | IC50 [nM] | SMILES
1 | ≤ 2000 | O=C(c1cccc2cccnc12)N1CCC2(c3ccccc3)OCC2C1 (stereo not shown) [Compound 33]
2 | ≤ 2000 | COc1cccnc1[C@]12CCN(C(=O)c3ccc(OCC(C)(C)F)c(C)c3)CC1OCO2 (stereo partly shown) [Compound 34]
3 | ≤ 2000 | COc1cc(C(=O)N2CC[C@@]3(c4ccccc4)OCOC3C2)ccc1OCC(C)(C)F (stereo partly shown) [Compound 36]
4 | > 5000 | COc1cc(C(=O)N2CC[C@]3(c4cscn4)OCOC3C2)ccc1OCCOC(F)(F)F (stereo partly shown) [Compound 39]
5 | 2000 to 5000 | O=C(c1cccc2cccnc12)N1CC[C@@]2(c3ccccc3)OCOC2C1 (stereo partly shown) [Compound 43]
6 | ≤ 2000 | Cc1cc(C(=O)N2CCC3(c4ccc(F)cc4)CC3C2)ccc1OCC(C)(C)O (stereo not shown) [Compound 44]
7 | ≤ 2000 | Cc1cc(C(=O)N2CC[C@]3(c4ccccc4)OCOC3C2)ccc1C(C)(C)O (stereo partly shown) [Compound 45]
8 | ≤ 2000 | COc1cc(C(=O)N2CC[C@@]3(c4ccc(F)cc4)OCOC3C2)ccc1COCCC(F)(F)F (stereo partly shown) [Compound 48]
9 | 2000 to 5000 | O=C(c1ccc2c(c1)OCC(COC(F)(F)F)O2)N1CC[C@]2(c3ccccc3)OCOC2C1 (stereo partly shown) [Compound 51]
10 | ≤ 2000 | COc1cc(C(=O)N2CCC3(c4ccccc4)OCC3C2)ccc1OCCOC(F)(F)F (stereo not shown) [Compound 55]
11 | ≤ 2000 | Cc1nc(C(=O)N2CCC3(c4ccccc4)OCC3C2)ccc1OC(C)C (stereo not shown) [Compound 56]
12 | ≤ 2000 | Cc1cc(C(=O)N2CC[C@@]3(c4ccc(F)cc4)OCOC3C2)ccc1OCC(C)(C)O (stereo partly shown) [Compound 58]
13 | ≤ 2000 | COc1nc(C(=O)N2CCC3(c4ccccc4)CC3C2)ccc1OCC(C)(C)O (stereo not shown) [Compound 60]
14 | ≤ 2000 | COc1cc(C(=O)N2CC[C@]3(c4ccccn4)OCOC3C2)ccc1OC(C)CC(F)(F)F (stereo partly shown) [Compound 61]
15 | ≤ 2000 | Cc1cc(C(=O)N2CC[C@@]3(c4nccs4)OCOC3C2)ccc1OCC(F)(F)F (stereo partly shown) [Compound 63]

The next lines start with the compound.

Row | SMILES | IC50 [nM]
16 | CC(C)Oc1ccc(C(=O)N2CCC3(c4ccccc4)CC3C2)cc1C#N (stereo not shown) [Compound 35] | ≤ 2000
17 | CC(C)(O)Cc1ccc(C(=O)N2CCC3(c4ccccc4)CC3C2)cc1F (stereo not shown) [Compound 37] | ≤ 2000
18 | COc1cc(C(=O)N2CC[C@]3(c4ccc(F)cc4)OCOC3C2)ccc1OCC(C)(C)F (stereo partly shown) [Compound 38] | ≤ 2000
19 | COc1cc(C(=O)N2CC[C@]3(c4ccccn4)OCOC3C2)cc(F)c1OCCC(F)(F)F (stereo partly shown) [Compound 40] | ≤ 2000
20 | COc1cc(C(=O)N2CC[C@]3(c4ncccc4OC)OCOC3C2)ccc1OCCOC(F)(F)F (stereo partly shown) [Compound 41] | ≤ 2000
21 | COc1cc(C(=O)N2CC[C@]3(c4ccccc4)OCOC3C2)ccc1OCC(C)(C)O (stereo partly shown) [Compound 42] | ≤ 2000
22 | COc1cc(C(=O)N2CC[C@@]3(c4ccn(C)n4)OCOC3C2)ccc1OCCOC(F)(F)F (stereo partly shown) [Compound 46] | ≤ 2000
23 | COc1cc(C(=O)N2CC[C@@]3(c4ccc(F)cc4)OCOC3C2)ccc1OCC(C)(C)F (stereo partly shown) [Compound 47] | ≤ 2000
24 | Cc1cc(C(=O)N2CC[C@@]3(c4ccccc4)OCOC3C2)ccc1C(C)(C)O (stereo partly shown) [Compound 49] | > 5000
25 | COc1cc(C(=O)N2CC[C@]3(c4ccccn4)OCOC3C2)ccc1COCC(F)(F)F (stereo partly shown) [Compound 50] | ≤ 2000
26 | Cc1cc(C(=O)N2CC[C@]3(c4cscn4)OCOC3C2)ccc1OCC(C)(C)F (stereo partly shown) [Compound 52] | 2000 to 5000
27 | Cc1cc(C(=O)N2CC[C@]3(c4ccc(F)cc4)OCOC3C2)ccc1OCC(C)(C)O (stereo partly shown) [Compound 53] | ≤ 2000
28 | O=C(c1ccc2c(c1)OCC(COC(F)(F)F)O2)N1CC[C@@]2(c3ccccc3)OCOC2C1 (stereo partly shown) [Compound 54] | ≤ 2000
29 | CC(C)(O)c1ccc(C(=O)N2CCC3(c4ccccc4)CC3C2)cc1F (stereo not shown) [Compound 57] | > 5000
30 | O=C(c1ccc(OCCOC(F)(F)F)c(F)c1)N1CC[C@@]2(c3nccs3)OCOC2C1 (stereo partly shown) [Compound 59] | ≤ 2000
31 | O=C(c1ccc(OCCOC(F)(F)F)c(F)c1)N1CC[C@]2(c3nccs3)OCOC2C1 (stereo partly shown) [Compound 62] | 2000 to 5000

From patent US10233191B2, “Fused piperidine amides as modulators of ion channels” (Vertex Pharmaceuticals Incorporated, priority 2013, dated 2019)
